Assay results: patent publication US9089640B2, “Apparatus and kit for encapsulating at least one compound for therapeutic and/or diagnostic use in erythrocytes” (ERYDEL S.p.A., priority 2010, dated 2015)

Tested on: autologous IgGs
Test: Recognition of treated erythrocytes by autologous IgGs (targeting to macrophages)
Format: cell-based
Procedure: The targeting to macrophages of erythrocytes containing drugs and/or contrast means can be achieved by the apparatus shown in the figure following a procedure similar to that used in example 1. When fludarabine was used as an encapsulating agent, a final concentration of 0.8 mM was obtained. The erythrocytes treated in this way were recognised by autologous IgGs in percentages over 80% the total number of processed cells.

Question: With `Nc1nc(F)nc2c1ncn2[C@@H]1O[C@H](CO)[C@@H](O)[C@@H]1O` [fludarabine] as the compound, how does the “Treated erythrocytes recognised by autologous IgGs, percentage of total number of processed cells” value read?
Answer: The value was “over 80%”.
